Tests used:
[1] = system: HeLa; experiment: Proliferation assay (crystal violet), HeLa; type: cell-based; conditions: Homo sapiens, 96 h, 4 days, read-out: Inhibition of proliferation IC50 HeLa
How it was run: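 Tumour cells seeded at 1000–5000 cells/well in medium with 10% FCS, dosed after 24 h at 0.001–10 μM (0.5% DMSO final) for 4 days. Cell number read by crystal-violet staining after glutaraldehyde fixation (A595), normalised to zero-point plate (0%) and untreated cells (100%); IC50 from 4-parameter fit.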

[2] = molecular target: human kinase Mps-1 (Homo sapiens (Human), UniProt P33981); experiment: Mps-1 kinase assay (TR-FRET); type: biochemical; conditions: 10 μM ATP; read-out: Mps1 avg (IC50 [mol/l])
Sequence of human kinase Mps-1 (P33981 whole entry): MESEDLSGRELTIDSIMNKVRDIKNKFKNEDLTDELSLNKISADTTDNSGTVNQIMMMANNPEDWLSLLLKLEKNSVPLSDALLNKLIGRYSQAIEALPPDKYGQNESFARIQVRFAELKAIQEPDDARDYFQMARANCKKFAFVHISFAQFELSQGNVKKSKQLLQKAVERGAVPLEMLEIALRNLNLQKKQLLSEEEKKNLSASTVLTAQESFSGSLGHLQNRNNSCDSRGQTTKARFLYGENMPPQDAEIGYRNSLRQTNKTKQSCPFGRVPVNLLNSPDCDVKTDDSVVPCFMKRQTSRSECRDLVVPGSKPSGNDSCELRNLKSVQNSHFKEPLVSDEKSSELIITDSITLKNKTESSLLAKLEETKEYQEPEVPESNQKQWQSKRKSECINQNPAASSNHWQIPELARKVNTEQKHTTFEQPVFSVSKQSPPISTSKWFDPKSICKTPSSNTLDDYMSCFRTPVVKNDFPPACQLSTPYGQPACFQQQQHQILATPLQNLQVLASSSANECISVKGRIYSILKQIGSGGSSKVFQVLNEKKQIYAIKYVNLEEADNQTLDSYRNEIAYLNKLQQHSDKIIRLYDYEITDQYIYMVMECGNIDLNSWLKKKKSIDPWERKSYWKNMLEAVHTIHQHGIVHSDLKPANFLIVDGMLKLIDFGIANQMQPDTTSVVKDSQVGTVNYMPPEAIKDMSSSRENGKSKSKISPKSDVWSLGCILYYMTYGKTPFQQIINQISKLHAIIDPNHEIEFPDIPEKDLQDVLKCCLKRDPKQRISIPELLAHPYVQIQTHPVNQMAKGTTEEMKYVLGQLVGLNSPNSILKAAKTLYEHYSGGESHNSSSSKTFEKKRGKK
How it was run: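 GST-tagged full-length human Mps-1 (~0.5 nM) preincubated 15 min with compound, then reacted 60 min at 22 °C with 10 μM ATP and 1 μM biotinylated peptide in Hepes pH 7.7 buffer. Phosphoproduct detected by TR-FRET (Eu anti-phospho-Ser/Thr, SA-XLent); 665/620 ratio normalised to no-inhibitor and no-enzyme controls.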

Row | Structure (SMILES) | IC50 [1] | IC50 [2]
1 | COc1ccc(NC(=O)c2c(C)nsc2Nc2cnc(C(F)(F)F)cn2)cn1 [Example 85, N-(6-methoxypyridin-3-yl)-3-methyl-5-{[5-(trifluoromethyl)pyrazin-2-yl]amino}-1,2-thiazole-4-carboxamide] | 1 µM | > 20 µM
2 | CCc1ccccc1NC(=O)c1c(C)nsc1Nc1cnc2cc(Cl)ccc2n1 [Example 86, 5-[(6-Chloroquinoxalin-2-yl)amino]-N-(2-ethylphenyl)-3-methyl-1,2-thiazole-4-carboxamide] | 1 µM | > 20 µM
3 | COc1ccc(NC(=O)c2c(C)nsc2Nc2nc3cccnc3s2)cn1 [Example 89, N-(6-Methoxypyridin-3-yl)-3-methyl-5-([1,3]thiazolo[5,4-b]pyridin-2-ylamino)-1,2-thiazole-4-carboxamide] | 3.6 µM | > 20 µM
4 | COc1ccc(NC(=O)c2c(C)nsc2Nc2nc3ccc(C)cc3s2)cn1 [Example 90, N-(6-Methoxypyridin-3-yl)-3-methyl-5-[(6-methyl-1,3-benzothiazol-2-yl)amino]-1,2-thiazole-4-carboxamide] | 10 µM | > 20 µM
5 | CCOC(=O)c1cnc(Nc2snc(C)c2C(=O)Nc2ccccc2CC)s1 [Example 92, Ethyl 2-({4-[(2-ethylphenyl)-carbamoyl]-3-methyl-1,2-thiazol-5-yl}amino)-1,3-thiazole-5-carboxylate] | 10 µM | > 20 µM
6 | COc1ccc(NC(=O)c2c(C)nsc2Nc2ncc(C(=O)N3CCOCC3)s2)cc1F [Example 93, N-(3-Fluoro-4-methoxyphenyl)-3-methyl-5-{[5-(morpholin-4-ylcarbonyl)-1,3-thiazol-2-yl]amino}-1,2-thiazole-4-carboxamide] | 10 µM | > 20 µM
7 | COc1ccc(NC(=O)c2c(C)nsc2Nc2cnc3ccccc3n2)cn1 [Example 94, N-(6-Methoxypyridin-3-yl)-3-methyl-5-(quinoxalin-2-ylamino)-1,2-thiazole-4-carboxamide] | 10 µM | > 20 µM
8 | CCOC(=O)c1sc(Nc2snc(C)c2C(=O)Nc2ccc(Cl)c(F)c2)nc1C [Example 95, Ethyl 2-({4-[(4-chloro-3-fluoro-phenyl)carbamoyl]-3-methyl-1,2-thiazol-5-yl}amino)-4-methyl-1,3-thiazole-5-carboxylate] | 1.2 µM | > 20 µM

From US9682995B2, “Amino-substituted isothiazoles” (BAYER PHARMA AKTIENGESELLSCHAFT, priority 2013, dated 2017)
